One block for each compound: values may come before it.
Key:
[1] = target: T1, Pgk1 (Homo sapiens, UniProt P00558); assay: Affinity for Pgk1 protein (Biacore T200); assay type: binding; conditions: drug alone; amount of small-molecule drug bound
T1 sequence (P00558 1-417): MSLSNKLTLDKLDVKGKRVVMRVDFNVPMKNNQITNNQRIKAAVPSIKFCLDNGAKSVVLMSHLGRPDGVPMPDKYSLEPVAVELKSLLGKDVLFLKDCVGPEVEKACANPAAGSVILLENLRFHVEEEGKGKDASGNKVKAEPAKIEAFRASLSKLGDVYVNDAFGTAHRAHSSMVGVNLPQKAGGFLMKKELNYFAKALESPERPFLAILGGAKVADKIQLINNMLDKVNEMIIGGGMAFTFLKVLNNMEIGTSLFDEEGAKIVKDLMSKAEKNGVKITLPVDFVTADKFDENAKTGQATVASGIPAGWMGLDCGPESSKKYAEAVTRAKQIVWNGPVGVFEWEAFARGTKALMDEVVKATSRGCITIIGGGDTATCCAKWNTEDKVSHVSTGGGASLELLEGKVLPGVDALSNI
Experimental: Example 30: Determination of Affinities of Compounds for Pgk1 Protein
Purified Pgk1 protein (with a concentration of 1 mg/mL) was immobilized on a Biacore T200 chip. […] The obtained curves can calculate parameters such as affinity and Rmax.

[2] = test system: phosphoglycerate kinase 1 (Pgk1); conditions: previous studies; cited from earlier work
[3] = test system: al adrenergic receptor; conditions: cited from earlier work
[4] = test system: SK-N-SH cells; assay: Effects of compounds on cellular ATP levels (Promega ATP assay); assay type: cell-based, human; conditions: 1 μM, 48 hours, 5% O2; untreated = 1
Experimental: Effects of compounds on cellular ATP levels.
Human Neuroblastoma Cell Line (SK-N-SH) is a human-derived neuroblastoma cell line. SK-N-SH cells were seeded in a 6-well plate at a density of 6×10^4 cells per well. The cells were cultured for 12 hours under 5% O2. Various drugs at a concentration of 1 μM were added. After 48 hours, the cells were harvested. Cellular ATP levels were measured using the Promega ATP assay kit. The experiment was repeated 6 times to 10 times. The experimental results were illustrated in FIG. 1. […] T1 to T11 were the experimental groups.

[5] = test system: diabetic patients; conditions: cited from earlier work
[6] = test system: patients; conditions: cited from earlier work
[7] = test system: glucose metabolism; conditions: human, in vivo; cited from earlier work
[8] = test system: db/db mice; assay: Hypoglycemic effect in diabetic model db/db mice, intraperitoneal; assay type: in vivo; conditions: 0.6 mg/Kg i.p., 4 hours
Experimental: Gene knockout db/db mice are a classic model of hyperglycemia and obesity. Under normal feeding conditions, mice aged 3 months or older developed hyperglycemia and obesity. After the mice were provided with only drinking water (fasted) for 6 hours, blood was collected from the tail of the mice to measure blood glucose values. Subsequently, different drugs, including saline (control), liraglutide at 0.6 mg/Kg, low-concentration T6 (T6 low, 0.1 mg/Kg), and high-concentration T6 (T6 high, 0.5 mg/Kg), were injected intraperitoneally. 4 hours later, blood was collected from the tail of the mice to measure the blood glucose levels. Each group consisted of 6 mice. Blood glucose levels before administration (Vbefore) and after administration (Vafter) were obtained for each mouse. The effect of the drug on blood glucose (%) was calculated as follows:
(Vbefore−Vafter)×100/Vbefore.

[9] = test system: db/db mice; assay: Acute glucose-response assay in non-fasted db/db mice; assay type: in vivo; conditions: s.c., 2 h; TZ 0.5, liraglutide 0.6, T6 0.5 mg/Kg
Experimental: The db/db mice were used to evaluate the glucose-lowering activity of compound T6 in comparison with reference metabolic agents (TZ 0.5 mg/Kg, liraglutide 0.6 mg/Kg, T6 0.5 mg/Kg). In FIG. 15, A) for the acute glucose-response assay, drugs were administered to non-fasted db/db mice. Immediately after drug administration (s. c.), mice were deprived of food and water, and blood glucose levels were measured from tail blood samples 2 h later. The relative percentage change in blood glucose was calculated by comparing glucose levels before and after treatment in the same animal. […] HbA1c levels were then measured using a glycated hemoglobin A1c enzyme-linked immunosorbent assay, also referred to as a mouse HbA1c ELISA assay. […] Data are presented as mean±error bars, with individual circles representing individual animals. Statistical significance is indicated as P<0.001 (**) and P<0.0001 (***).

[10] = test system: rats; conditions: combined administration of terazosin and propranolol; cited from earlier work
[11] = test system: MPTP-induced Parkinson's disease model mice; assay: MPTP-induced mouse model of Parkinson's disease, rotarod and tyrosine hydroxylase Western blot; assay type: in vivo
Experimental: Male mice aged 3 months were used and fed normally. The acute MPTP modeling method (see Sonsalla P K, Heikkila R E. The influence of dose and dosing interval on MPTP-induced dopaminergic neurotoxicity in mice. Eur J Pharmacol 1986; 129(3): 339-45.) was employed. MPTP was injected intraperitoneally four times in total at a dose of 20 mg/kg body weight per injection, with a 2-hour interval between each injection. MPTP was dissolved in normal saline, and the control group received an equal dose of normal saline. T2 was dissolved in DMSO and diluted with normal saline to the desired concentration. Accordingly, equal doses of DMSO and normal saline were administered during the treatment. On the day of MPTP model establishment, mice were administered either T2 (treatment group) or DMSO (control group). Subsequently, mice in all groups were administered the corresponding drugs daily. Mouse behavior was tested using a rotarod (E103, UGO BASILE). First, mice were pre-trained for two consecutive days at a constant speed of 15 revolutions per minute (15 rpm) until they could stay on the rod for more than 60 seconds. On day 7 after MPTP injection, mice were tested on the rotarod in an accelerating mode (2 rpm to 45 rpm). The latency to fall from the rotarod was recorded, and the behavior was monitored by a camera. After the experiment, the mice were sacrificed, and the striatal brain tissue was harvested for Western blot assay. Tyrosine hydroxylase (TH) is a protein specifically expressed in dopaminergic neurons. Therefore, whether dopaminergic neurons were damaged can be determined by Western blot assay using an anti-TH antibody.

[12] = test system: Parkinson's disease and related diseases; conditions: long-term use; cited from earlier work

Compound: Nc1nc(N2CCN(C(=O)[C@H]3CCCN3)CC2)cc2cc3c(cc12)OCO3 [Compound T8]
Rmax [1]: 87 RU

Compound: Nc1nc(N2CCN(C(=O)[C@H]3CCCO3)CC2)cc2cc3c(cc12)OCO3 [Compound T1]
Rmax [1]: 116 RU

Compound: CC1(C)Oc2cc3cc(N4CCN(C(=O)[C@H]5CCCO5)CC4)nc(N)c3cc2O1 [Compound T4]
Rmax [1]: 75 RU

Compound: COc1cc2cc(N3CCN(C(=O)C4CCCO4)CC3)nc(N)c2cc1OC (stereo not drawn) [TZ-md]
Binding to / activation of Pgk1 [2]: still retains the effect of activating Pgk1
Inhibition of the al adrenergic receptor [3]: does not inhibit the al adrenergic receptor
Reduction of affinity for the al adrenergic receptor ([3]; substitution of quinazoline nitrogen by carbon, vs terazosin): more than 1000 fold

Rmax [1]: None
Compound: Nc1nc(N2CCN(C(=O)[C@H]3CCCO3)CC2)cc2cc3c(cc12)OCCO3 [Compound T10]
Activity in increasing cellular ATP [4]: no such activity of increasing cellular ATP

Compound: Nc1nc(N2CCN(C(=O)[C@@H]3CCCN3)CC2)cc2cc3c(cc12)OCO3 [Compound T9]
Rmax [1]: 87 RU

Compound: COc1cc2nc(N3CCN(C(=O)C4COc5ccccc5O4)CC3)nc(N)c2cc1OC (stereo not drawn) [doxazosin]
Blood glucose and lipid levels [5]: efficacy is extremely limited or ineffective
Side effects [6]: intraoperative floppy iris syndrome (IFIS), hypotension, fatigue, dizziness, syncope, and blurred vision

Compound: Oc1ccc(C=Cc2cc(O)cc(O)c2)cc1 [resveratrol, reference compound]
Clinical efficacy on glucose metabolism [7]: either no effect or clinical efficacy in only a small subset of the population

Compound: COc1cc2nc(N(C)CCCNC(=O)C3CCCO3)nc(N)c2cc1OC (stereo not drawn) [alfuzosin]
Side effects [6]: intraoperative floppy iris syndrome (IFIS), hypotension, fatigue, dizziness, syncope, and blurred vision

Compound: CCCCCCCCCCCCCCCC(=O)N[C@@H](CCC(=O)NCCCC[C@H](NC(=O)[C@H](C)NC(=O)[C@H](C)NC(=O)[C@H](CCC(N)=O)NC(=O)CNC(=O)[C@H](CCC(=O)O)NC(=O)[C@H](CC(C)C)NC(=O)[C@H](Cc1ccc(O)cc1)NC(=O)[C@H](CO)NC(=O)[C@H](CO)NC(=O)[C@@H](NC(=O)[C@H](CC(=O)O)NC(=O)[C@H](CO)NC(=O)[C@@H](NC(=O)[C@H](Cc1ccccc1)NC(=O)[C@@H](NC(=O)CNC(=O)[C@H](CCC(=O)O)NC(=O)[C@H](C)NC(=O)[C@@H](N)Cc1cnc[nH]1)[C@@H](C)O)[C@@H](C)O)C(C)C)C(=O)N[C@@H](CCC(=O)O)C(=O)N[C@@H](Cc1ccccc1)C(=O)N[C@H](C(=O)N[C@@H](C)C(=O)N[C@@H](Cc1c[nH]c2ccccc12)C(=O)N[C@@H](CC(C)C)C(=O)N[C@H](C(=O)N[C@@H](CCCNC(=N)N)C(=O)NCC(=O)N[C@@H](CCCNC(=N)N)C(=O)NCC(=O)O)C(C)C)[C@@H](C)CC)C(=O)O [liraglutide, reference compound]
Hypoglycemic effect (liraglutide) [8]: optimal hypoglycemic effect
Acute change in blood glucose [9]: marked reduction in blood glucose

Compound: Nc1ncnc2c1ncn2[C@@H]1O[C@H](COP(=O)(O)OP(=O)(O)O)[C@@H](O)[C@H]1O [ADP, reference compound]
Rmax [1]: 35 RU

Compound: CN(CC(=O)O)C(=N)N [creatine]
Clinical efficacy on glucose metabolism [7]: either no effect or clinical efficacy in only a small subset of the population

Compound: insulin
Clinical efficacy on glucose metabolism [7]: either no effect or clinical efficacy in only a small subset of the population

Compound: CN(C)C(=N)N=C(N)N [metformin, reference compound]
Clinical efficacy on glucose metabolism [7]: either no effect or clinical efficacy in only a small subset of the population

Compound: CC1Oc2cc3cc(N4CCN(C(=O)[C@H]5CCCO5)CC4)nc(N)c3cc2O1 (stereo partly drawn) [Compound T3]
Rmax [1]: 93 RU

Compound: Nc1nc(N2CCN(C(=O)[C@H]3CCCO3)CC2)cc2cc3c(cc12)CCO3 [Compound T5]
Rmax [1]: 86 RU

Compound: O=C(O)c1cccnc1 [vitamin B3]
Clinical efficacy on glucose metabolism [7]: either no effect or clinical efficacy in only a small subset of the population

Rmax [1]: None
Compound: Nc1nc(N2CCN(C(=O)c3ccco3)CC2)cc2cc3c(cc12)OCO3 [Compound T11]
Activity in increasing cellular ATP [4]: no such activity of increasing cellular ATP

Compound: CC(C)NCC(O)COc1cccc2ccccc12 (stereo not drawn) [propranolol]
Blood glucose in rats [10]: did not affect blood glucose in rats

Compound: Nc1nc(N2CCN(C(=O)[C@@H]3CCCO3)CC2)cc2cc3c(cc12)OCO3 [Compound T2]
Rmax [1]: 122 RU
Tyrosine hydroxylase level / dopaminergic neurons ([11]; T2 0.1 mg/Kg, striatum, Western blot): exerted a protective effect on dopaminergic neurons
Motor ability (rotarod) ([11]; T2 0.1, 0.3 and 1 mg/Kg, day 7 after MPTP): exerted protective effects

Compound: COC1=C(OC)C(=O)C(C/C=C(\C)CC/C=C(\C)CC/C=C(\C)CC/C=C(\C)CC/C=C(\C)CC/C=C(\C)CC/C=C(\C)CC/C=C(\C)CC/C=C(\C)CCC=C(C)C)=C(C)C1=O [coenzyme Q10]
Clinical efficacy on glucose metabolism [7]: either no effect or clinical efficacy in only a small subset of the population

Compound: Nc1nc(N2CCN(C(=O)C3CCCC3)CC2)cc2cc3c(cc12)OCO3 [Compound T7]
Rmax [1]: 159 RU

Compound: CO[C@H]1C[C@@H]2CC[C@@H](C)[C@@](O)(O2)C(=O)C(=O)N2CCCC[C@H]2C(=O)O[C@H]([C@H](C)C[C@@H]2CC[C@@H](O)[C@H](OC)C2)CC(=O)[C@H](C)/C=C(\C)[C@@H](O)[C@@H](OC)C(=O)[C@H](C)C[C@H](C)/C=C/C=C/C=C/1C [rapamycin, reference compound]
Clinical efficacy on glucose metabolism [7]: either no effect or clinical efficacy in only a small subset of the population

Compound: CCOc1ccccc1OCCN[C@H](C)Cc1ccc(OC)c(S(N)(=O)=O)c1 [tamsulosin]
Effect on incidence of Parkinson's disease and related diseases [12]: do not exhibit similar effects
Side effects [6]: intraoperative floppy iris syndrome (IFIS), hypotension, fatigue, dizziness, syncope, and blurred vision

Reference: patent publication US20260355182A1, “ISOQUINOLINE DERIVATIVE, SYNTHESIS METHOD THEREFOR, AND USE THEREOF” (Harbin Gloria Pharmaceuticals Co., Ltd., priority 2023, published 2026)
